{
  "source": "patent US12208164B2",
  "about": "“Modular metal-organic polyhedra superassembly compositions” (UNM Rainforest Innovations, priority 2019, dated 2025)",
  "system": "A549 cells",
  "test": "Targeted cell killing efficacy, viability of A549 cells",
  "type": "cell-based, human",
  "settings": "incubated 2 hours, series of concentrations",
  "experimental": "Cell viability of the constructed nanocarriers was assessed by CellTiter-Glo 2.0 assay. […] Then, 100 μL of the samples was added into a white 96-well plate. Subsequently, 100 μL CellTiter-Glo 2.0 reagent was dispensed into each well. The luminescence was recorded 10 minutes after addition of CellTiter-Glo 2.0 reagent by a BioTek microplate reader. Cell viability was calculated as a percentage of mammalian cells in the absence of nanocarriers.",
  "data": [
    {"smiles": "COc1cccc2c1C(=O)c1c(O)c3c(c(O)c1C2=O)C[C@@](O)(C(=O)CO)C[C@@H]3O[C@H]1C[C@H](N)[C@H](O)[C@H](C)O1", "note": "[free DOX, doxorubicin]", "values": [
      {"measurement": "toxicity to A549 cells", "result": "dose-dependent toxicity"}
    ]}
  ]
}
